From patent US20040224972A1, “Medicinal compositions for concomitant use as anticancer agent” (priority 2000, published 2004)
Where a name gives a salt, the structure may show the parent alone. Read-outs that look alike come from different tables or passages of the source.

Legend:
[1] = test system: Human colon cancer strain HCT15 xenograft; assay: Combined use of E7070 and MMC in human colon cancer HCT15 xenograft model; type: in vivo; details: E7070 QDx5, MMC 4.19 mg/kg/day QDx1; for Toxicity mRBW mean (minimum relative body weight): day of minimum in parentheses
Procedure: Human colon cancer strain HCT15 (purchased from ATCC) was cultured in RPMI1640 (containing 10% FBS) in a 5% CO2gas incubator until it attained about 80% confluence, and the cells were harvested with trypsin-EDTA and suspended in Hanks balanced solution to prepare a suspension of 5×10^7 cells/ml. 0.1 ml of the cell suspension was implanted subcutaneously in each nude mouse. When the average tumor volume reached 156 mm3 after the implantation, E7070 in a dose of 25 mg/kg/day and/or MMC in a dose of 4.19 mg/kg/day were administered either alone or in combination. E7070was intravenously administered once per day for 5 days (first to fifth days), while MMC was intravenously administered once (first day). After the administration was initiated, the longer and shorter diameters of the tumor were measured at the frequency of 2 times/week with digital calipers (Mitsutoyo), and the tumor volume was calculated according to the following equation.
(§1) Tumor volume=longer diameter of tumor (mm)×shorter diameter of tumor (mm)^2/2
(§2) The items for determination of antitumor effect were the following 2 items:

[2] = Examination of gemcitabine hydrochloride, doxorubicin and taxol for synergistic effect (combined with E7070); details: used in the composition with E7070; no data given
[3] = test system: Human colon cancer strain Colo320D. M. xenograft; assay: Combined use of E7070 and 5-FU in human colon cancer Colo320D. M. xenograft model; type: in vivo; details: for Toxicity Dead/Treated: E7070 30 mg/kg/day QDx5, 5-FU 60 mg/kg/day Q4Dx3
Description: Human colon cancer strain Colo320D.

[4] = test system: Human colon cancer strain SW620 xenograft; assay: Combined use of E7070 and CPT-11 in human colon cancer SW620 xenograft model; details: E7070 25 mg/kg/day QDx5, CPT-11 62.5 mg/kg/day Q4Dx3
Procedure: Human colon cancer strain SW620 (purchased from ATCC) was cultured in RPMI1640 (containing 10% FBS) in a 5% Co2gas incubator until it attained about 80% confluence, and the cells were harvested with trypsin-EDTA and suspended in Hanks balanced solution to prepare a suspension of 5×10^7 cells/ml. 0.1 ml of the cell suspension was implanted subcutaneously in each nude mouse. When the average tumor volume reached 226 mm^3 after the implantation, E7070 in a dose of 25 mg/kg/day and/or CPT-11 in a dose of 62.5 mg/kg/day were administered either alone or in combination. E7070 alone was intravenously administered once per day for 5 days (first to fifth days), while CPT-11 alone was intravenously administered 3 times (once every 4 days, that is, on the first, fifth and ninth days). Administration in combination was performed in 3 schedules, that is, simultaneous administration (E7070 on the first to fifth days; CPT-11 on the first, fifth and ninth days), previous administration of E7070 (E7070 on the first to fifth days; CPT-11 on the sixth, tenth and fourteenth days) and previous administration of CPT-11 (E7070 on the tenth to fourteenth days; CPT-11 on the first, fifth and ninth days). After the administration was initiated, the longer and shorter diameters of the tumor were measured at the frequency of 2 times/week with digital calipers (Mitsutoyo), and the tumor volume was calculated according to the following equation.
as §1, §2
(§3) Minimum relative tumor volume (mRTV): Minimum value of relative tumor volume (RTV*)
(§4) *: Tumor volume on n days after first treatment/tumor volume at the start of treatment.

[5] = test system: Human breast cancer HBC4 xenograft; assay: Combined use of E7070 and capecitabine in human breast cancer HBC4 xenograft model; type: in vivo, human cells in nude mouse; details: nude mice, s.c. HBC4; E7070 30.625 mg/kg/day (87.5% MTD) day 1-5; capecitabine 1.3125 mmol/kg/day (87.5% MTD) 14 days; combination: E7070 day 1-5, capecitabine day 6-19
Procedure: When the average tumor volume reached 114 mm3 after the implantation, E7070 in a dose of 30.625 mg/kg/day and/or capecitabine in a dose of 1.3125 mmol/kg/day were administered either alone or in combination.

[6] = test system: Human colon cancer strain HCT15 xenograft; details: E7070 30 mg/kg/day QDx5, CPT-11 75 mg/kg/day Q4Dx3; for Toxicity mRBW mean (minimum relative body weight): day of minimum in parentheses
Procedure: Human colon cancer strain HCT15 (purchased from ATCC) was cultured in RPMI1640 (containing 10%FBS) in a 5%CO2gas incubator until it attained about 80% confluence, and the cells were harvested with trypsin-EDTA and suspended in Hanks balanced solution to prepare a suspension of 5×10^7 cells/ml. 0.1 ml of the cell suspension was implanted subcutaneously in each nude mouse. When the average tumor volume reached 182 mm3 after the implantation, E7070 in a dose of 30 mg/kg/day and/or CPT-11 in a dose of 75 mg/kg/day were administered either alone or in combination. E7070was intravenously administered once per day for 5 days (first to fifth days), while CPT-11 was intravenously administered 3 times (once every 4 days, that is, on the first, fifth and ninth days). After the administration was initiated, the longer and shorter diameters of the tumor were measured at the frequency of 2 times/week with digital calipers (Mitsutoyo), and the tumor volume was calculated according to the following equation.
as §1, §2
Tx4: The time in days for tumor size to attain 4 folds of initial size.
as §3, §4

SMILES	Toxicity Dead/Treated [1]	Toxicity mRBW mean (minimum relative body weight) [1]	antitumor activity when examined for synergistic effect [2]	Toxicity Dead/Treated [3]	Toxicity Dead/Treated [4]	Toxicity mRBW mean (minimum relative body weight) ([4]; day of minimum in parentheses)	Toxicity Dead/Treated [6]	Toxicity mRBW mean (minimum relative body weight) [6]	further results
CO[C@@]12[C@H](COC(N)=O)C3=C(C(=O)C(C)=C(N)C3=O)N1C[C@@H]1N[C@@H]12 [MMC, [1aS-(1aα,8β,8aα,8bα)]-6-amino-8-[[(aminocarbonyl)oxy]methyl]1,1a,2,8,8a,8b-hexahydro-8a-methoxy-5-methylazirino[2′,3′: 3,4]pyrrolo[1,2-a]indole-4,7-dione]	0/6	0.99 (11)							
Cl.Nc1ccn([C@@H]2O[C@H](CO)[C@@H](O)C2(F)F)c(=O)n1 [gemcitabine hydrochloride, 2′-deoxy-2′,2′-difluoro-cytidine hydrochloride]			excellent antitumor activity						
NS(=O)(=O)c1ccc(S(=O)(=O)Nc2cccc3c(Cl)c[nH]c23)cc1 [E7070, N-(3-chloro-1H-indol-7-yl)-4-sulfamoylbenzenesulfonamide]	0/6	0.93 (11)		0/6	0/6	0.98 (8)	0/6	0.92 (7)	mRTV mean ± S.D. (minimum relative tumor volume) ([4]; day of minimum in parentheses): 0.76 ± 0.42 (12); Tx4 [5]: 50.0 ± 8.1 days
COc1cccc2c1C(=O)c1c(O)c3c(c(O)c1C2=O)C[C@@](O)(C(=O)CO)C[C@@H]3O[C@H]1C[C@H](N)[C@H](O)[C@H](C)O1 [doxorubicin, 10-[(3-amino-2,3,6-trideoxy-α-L-lyxo-hexopyranosyl)oxy]-7,8,9,10-tetrahydro-6,8,11-trihydroxy-8-(hydroxyacetyl)-1-methoxy-(8S-cis)-5,12-naphthacenedione]			excellent antitumor activity						
CCc1c2c(nc3ccc(OC(=O)N4CCC(N5CCCCC5)CC4)cc13)-c1cc3c(c(=O)n1C2)COC(=O)[C@]3(O)CC [CPT-11, [1,4′-Bipiperidine]-1′-carboxylicacid (S)-4,11-diethyl-3,4,12,14-tetrahydro-4-hydroxy-3,14-dioxo-1H-pyrano-[3′,4′:6,7]-indolizino[1,2-b]quinolin-9-yl ester Hydrochloride trihydrate]					0/6	0.99 (8)	0/6	0.94 (7, 10)	
O=c1[nH]cc(F)c(=O)[nH]1 [5-FU, 5-fluoro-2,4-(1H,3H)-pyrimidinedione]				0/6					Tx4 (days) mean ± S.D.: time in days for tumor size to attain 4 folds of initial tumor size ([3]; nude mice, s.c. Colo320D. M., E7070 30 mg/kg/day i.v. QDx5, 5-FU 60 mg/kg/day i.v. Q4Dx3, + simultaneous, → sequential): 10.0 ± 0.7 days
